Results as given in patent publication US11242337B2, “Compounds useful for treating gastrointestinal tract disorders” (Ardelyx, Inc., priority 2017, dated 2022).

Experiments:
NHE3 [1] = biological target: T1, NHE3 (Homo sapiens, UniProt P48764); test: Cell-based assay of NHE-3 activity (pre-incubation inhibition), human; conditions: human Preincubation; for pIC50: 0-30 μM test compound
T1 construct: expressed in transfected cells
T1 sequence (P48764 26-834): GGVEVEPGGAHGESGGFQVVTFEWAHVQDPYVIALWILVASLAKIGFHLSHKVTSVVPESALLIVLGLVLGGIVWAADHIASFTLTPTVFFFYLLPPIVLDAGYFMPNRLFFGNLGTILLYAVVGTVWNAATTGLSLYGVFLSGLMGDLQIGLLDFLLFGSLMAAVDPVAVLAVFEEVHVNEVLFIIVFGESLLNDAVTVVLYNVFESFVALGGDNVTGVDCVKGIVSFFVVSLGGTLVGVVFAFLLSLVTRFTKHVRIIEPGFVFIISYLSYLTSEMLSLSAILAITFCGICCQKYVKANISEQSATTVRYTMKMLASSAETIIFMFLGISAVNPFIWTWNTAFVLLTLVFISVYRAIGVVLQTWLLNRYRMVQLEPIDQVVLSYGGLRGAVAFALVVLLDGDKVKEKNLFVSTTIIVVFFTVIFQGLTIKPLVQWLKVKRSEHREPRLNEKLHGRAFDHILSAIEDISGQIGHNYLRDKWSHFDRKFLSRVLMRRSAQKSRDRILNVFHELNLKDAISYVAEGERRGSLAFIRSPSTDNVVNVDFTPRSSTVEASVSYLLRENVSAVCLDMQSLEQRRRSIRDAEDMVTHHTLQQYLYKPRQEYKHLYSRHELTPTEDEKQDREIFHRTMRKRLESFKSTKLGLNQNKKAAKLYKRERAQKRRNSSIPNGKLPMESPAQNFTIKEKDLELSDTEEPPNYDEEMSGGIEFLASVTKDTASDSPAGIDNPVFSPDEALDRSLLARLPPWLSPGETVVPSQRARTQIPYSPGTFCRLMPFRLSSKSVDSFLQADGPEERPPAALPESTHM
T1 sequence (Q99653 2-195 partner limits assumed): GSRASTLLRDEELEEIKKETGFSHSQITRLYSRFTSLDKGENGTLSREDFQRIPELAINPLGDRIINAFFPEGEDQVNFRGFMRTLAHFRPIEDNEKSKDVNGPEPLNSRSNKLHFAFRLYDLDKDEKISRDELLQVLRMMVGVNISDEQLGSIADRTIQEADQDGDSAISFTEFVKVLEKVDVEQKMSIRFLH
Method in brief: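 PS120 fibroblasts stably expressing human NHE3 and NHERF2, loaded 30 min at 37 °C with 5 μM BCECF-AM in NH4Cl buffer, then acidified 10 min at room temperature in Na+-free buffer with 0–30 μM compound. Initial rate of BCECF fluorescence ratio change (FLIPR) per minute taken as Na+/H+ activity.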

NHE3 [2] = biological target: T1, NHE3; test: Cell-based assay of NHE-3 activity (persistent inhibition), human; conditions: human Persistence, 60 min incubation then washout
Method in brief: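 PS120 fibroblasts expressing human NHE3 with NHERF2 exposed to 0-30 μM compound for 60 min at RT, then washed out; cells acid-loaded by NH4Cl prepulse with BCECF-AM and Na+-free buffer. Na+-driven pH recovery started 10 min post-washout; initial rate of BCECF ratio change (FLIPR) taken as activity.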

SMILES	% inhibition (NHE3 [1])	pIC50 (NHE3 [1])	% inhibition (NHE3 [2])	pIC50 (NHE3 [2])
Cc1cc(S(=O)(=O)N2CC[C@H](COCCOCCNC(=O)NCCCCNC(=O)NCCOCCOC[C@H]3CCN(S(=O)(=O)c4ccc(O[C@H]5c6cc(Cl)cc(Cl)c6C[C@@H]5N(C)C)c(C)c4)C3)C2)ccc1O[C@H]1c2cc(Cl)cc(Cl)c2C[C@@H]1N(C)C [Example 44, 3-[2-(2-[[(3S)-1-[(4-[[(1S,2S)-4,6-dichloro-2-(dimethylamino)-2,3-dihydro-1H-inden-1-yl]oxy]-3-methylbenzene)sulfonyl]pyrrolidin-3-yl]methoxy]ethoxy)ethyl]-1-[4-([[2-(2-[[(3S)-1-[(4-[[(1S,2S)-4,6-dichloro-2-(dimethylamino)-2,3-dihydro-1H-inden-1-yl]oxy]-3-methylbenzene)sulfonyl]pyrrolidin-3-yl]methoxy]ethoxy)ethyl]carbamoyl]amino)butyl]urea; bis(trifluoroacetic acid)]	C (>70%)	C (NHE3 pIC50 > 7)	C (>70%)	B (NHE3 pIC50 6-7)
CN1CCCN([C@H]2Cc3c(C#N)cc(Cl)cc3[C@@H]2Oc2ccc(S(=O)(=O)N[C@H]3CCN(CCOCCNC(=O)NCCCCNC(=O)NCCOCCN4CC[C@H](NS(=O)(=O)c5ccc(O[C@H]6c7cc(Cl)cc(C#N)c7C[C@@H]6N6CCCN(C)CC6)cc5)C4)C3)cc2)CC1 [Example 128, 4-([(1S,2S)-6-Chloro-4-cyano-2-(4-methyl-1,4-diazepan-1-yl)-2,3-dihydro-1H-inden-1-yl]oxy)-N—[(S)-1-(20-[(S)-3-([4-([(1S,2S)-6-chloro-4-cyano-2-(4-methyl-1,4-diazepan-1-yl)-2,3-dihydro-1H-inden-1-yl]oxy)phenyl]sulfonamido)pyrrolidin-1-yl]-7,14-diaxo-3,18-dioxa-6,8,13,15-tetraazaicosyl)pyrrolidin-3-yl]benzenesulfonamide]	A (NHE3 < 40%)	A (NHE3 pIC50 < 6)	A (NHE3 < 40%)	C (NHE3 pIC50 > 7)
Cc1cc(S(=O)(=O)NCCOCCOCCNC(=O)NCCCCNC(=O)NCCOCCOCCNS(=O)(=O)c2ccc(O[C@H]3c4cc(Cl)cc(F)c4C[C@@H]3N(C)C)c(C)c2)ccc1O[C@H]1c2cc(Cl)cc(F)c2C[C@@H]1N(C)C [Example 16]	B (40-70%)	C (NHE3 pIC50 > 7)	B (40-70%)	C (NHE3 pIC50 > 7)

Continued, values first:

% inhibition (NHE3 [1])	pIC50 (NHE3 [1])	% inhibition (NHE3 [2])	pIC50 (NHE3 [2])	SMILES
C (>70%)	C (NHE3 pIC50 > 7)	C (>70%)	C (NHE3 pIC50 > 7)	N[C@@H]1CCCN([C@H]2Cc3c(Cl)cc(Cl)cc3[C@@H]2Oc2ccc(S(=O)(=O)NCCOCCOCCNC(=O)NCCCCNC(=O)NCCOCCOCCNS(=O)(=O)c3ccc(O[C@H]4c5cc(Cl)cc(Cl)c5C[C@@H]4N4CCC[C@@H](N)C4)cc3Cl)c(Cl)c2)C1 [Example 104]
A (NHE3 < 40%)	–	A (NHE3 < 40%)	–	Cc1cc(S(=O)(=O)NCCOCCOCCNC(=O)NCCCCNC(=O)NCCOCCOCCNS(=O)(=O)c2ccc(O[C@H]3c4cc(Cl)cc(C#N)c4C[C@@H]3N3CCC[C@@H](N)C3)c(C)c2)ccc1O[C@H]1c2cc(Cl)cc(C#N)c2C[C@@H]1N1CCC[C@@H](N)C1 [Example 8, 3-[2-(2-[2-[(4-[[(1S,2S)-2-[(3R)-3-Aminopiperidin-1-yl]-6-chloro-4-cyano-2,3-dihydro-1H-inden-1-yl]oxy]-3-methylbenzene)sulfonamido]ethoxy]ethoxy)ethyl]-1-[4-([[2-(2-[2-[(4-[[(1S,2S)-2-[(3R)-3-aminopiperidin-1-yl]-6-chloro-4-cyano-2,3-dihydro-1H-inden-1-yl]oxy]-3-methylbenzene)sulfonamido]ethoxy]ethoxy)ethyl]carbamoyl]amino)butyl]urea; bis(trifluoroacetic acid)]
